According to BindingDB's records for doi:10.1021/jm801416q (Pharmacopeia, 2010):

Test: Antagonist activity at human CCR1 in THP1 cells assessed as inhibition of MIP-1-alpha-induced chemotaxis after 3 hrs
With `COc1ccc(NC(=O)N2CCC[C@@H]2C(=O)N(C)Cc2ccc(Cl)cc2)cc1` [(R)-N2-(4-Chlorobenzyl)-N1-(4-methoxyphenyl)-N2-methylpyrrolidine-1,2-dicarboxamide] the IC50 was 0.44 µM.
`Cc1cc(C(F)(F)F)cc(C)c1NC(=O)N1CCC[C@@H]1C(=O)N(C)Cc1ccc(Cl)cc1` [(R)-N2-(4-Chlorobenzyl)-N1-[2,6-dimethyl-4-(trifluoromethyl)phenyl]-N2-methylpyrrolidine-1,2-dicarboxamide] gave an IC50 of 0.006 µM.
In the case of `CN(Cc1ccc(Cl)cc1)C(=O)[C@H]1CCCN1C(=O)Nc1ccc(C(F)(F)F)cc1Cl` [(R)-N2-(4-Chlorobenzyl)-N1-[2-chloro-4-(trifluoromethyl)phenyl]-N2-methylpyrrolidine-1,2-dicarboxamide], the IC50 is reported as 0.035 µM.
`Cc1cc(C(F)(F)F)ccc1NC(=O)N1CCC[C@@H]1C(=O)N(C)Cc1ccc(Cl)cc1` [(R)-N2-(4-Chlorobenzyl)-N2-methyl-N1-[2-methyl-4-(trifluoromethyl)phenyl]pyrrolidine-1,2-dicarboxamide] showed an IC50 of 0.016 µM.
